The assay has as its system ACHN cell line. In words: drug screen of the SelleckChem kinase inhibitor library with and without 5 uM SU-329, Cell-Titer Glo after 5 days. In kind it is cell-based. The note with it: kinase inhibitor at 200 nM with and without 5 uM SU329; ACHN cell line; 5 days; Cell-Titer Glo.

Structures can show the parent of a compound that is named as a salt.

Turning to `Cc1ccc(Nc2nccc(N(C)c3ccc4c(C)n(C)nc4c3)n2)cc1S(N)(=O)=O` [Pazopanib], the log2fc is on record as −0.1316.

The molecule `C[C@@H]1CCN(C(=O)CC#N)C[C@@H]1N(C)c1ncnc2[nH]ccc12` [Tofacitinib (CP-690550, Tasocitinib)] returned a log2fc of 0.6421. On to `CCc1nc(-c2cccc(C)c2)c(-c2ccnc(NC(=O)c3ccccc3)c2)s1` [TAK-715], for which the log2fc amounted to 0.02439. `COc1ccc(-c2ccc3c(N4CCOCC4)nc(N4C[C@@H](C)O[C@@H](C)C4)nc3n2)cc1CO` [KU-0063794] displayed a log2fc of −1.551. Then `C#Cc1cccc(Nc2ncnc3cc4c(cc23)OCCOCCOCCO4)c1` [Icotinib], with 0.1182; and `Cc1cnc(Nc2ccc(N3CCN(C)CC3)cc2)nc1Nc1cccc(S(=O)(=O)NC(C)(C)C)c1` [TG101209], with −0.1573.

`N#Cc1c(O)c2c(-c3ccc(-c4ccccc4O)cc3)csc2[nH]c1=O` [A-769662] came in with a log2fc of 0.1798. In the case of `Cc1cnc(-c2cnc(NCCNc3ccc(C#N)cn3)nc2-c2ccc(Cl)cc2Cl)[nH]1.Cl` [CHIR-99021 (CT99021) HCl] it was 0.9577; in that of `CCCS(=O)(=O)Nc1ccc(F)c(C(=O)c2c[nH]c3ncc(-c4ccc(Cl)cc4)cc23)c1F` [Vemurafenib (PLX4032, RG7204), vemurafenib, reference compound], 0.009154; in that of `Cc1c(NC(=O)c2ccc(C(C)(C)C)cc2)cccc1-c1cn(C)c(=O)c(Nc2ccc(C(=O)N3CCOCC3)cc2)n1` [CGI1746], 0.8939. In the case of `Cc1ccc(NC(=O)c2ccc(CN3CCN(C)CC3)cc2)cc1Nc1nccc(-c2cccnc2)n1` [Imatinib Mesylate (STI571), imatinib, reference compound] it was 0.1536; in that of `CN(C)CCOc1ccc(-c2nc(-c3ccncc3)c(-c3ccc4c(c3)CC/C4=N\O)[nH]2)cc1` [SB590885], 0.2113; in that of `COc1ccc(-c2ccc3ncc4c(c3c2)n(-c2ccc(N3CCNCC3)c(C(F)(F)F)c2)c(=O)n4C)cn1` [BGT226 (NVP-BGT226)], −0.4638.

`COc1cc(N2CCC(N(C)C)CC2)ccc1Nc1ncc(Cl)c(Nc2ccccc2P(C)(C)=O)n1` [ALK-IN-1]: the log2fc is on record as −0.4692. In the case of `C=CC(=O)Nc1cccc(Nc2nc(Nc3ccc(Oc4ccnc(C(=O)NC)c4)cc3)ncc2F)c1` [CNX-774] it was −0.2519.

As to `O=c1c(O)c(-c2ccc(O)c(O)c2)oc2cc(O)cc(O)c12` [Quercetin], the log2fc is −0.449.

Take `C=CC(=O)Nc1cc(Nc2nccc(-c3cn(C)c4ccccc34)n2)c(OC)cc1N(C)CCN(C)C` [Osimertinib (AZD9291)]: the log2fc is −0.01286. In the case of `CCc1cnn2c(NCc3ccc[n+]([O-])c3)cc(N3CCCC[C@H]3CCO)nc12` [Dinaciclib (SCH727965)] it was 1.402; in that of `C[C@@H]1COCCN1c1cc(C2(S(C)(=O)=O)CC2)nc(-c2cccc3[nH]ccc23)n1` [AZ20], −0.01528; in that of `Nc1ccc(C(=O)Nc2cccc(-c3nc(N4CCOCC4)c4oc5ncccc5c4n3)c2)cn1` [YM201636], −0.5268.

For the molecule `COc1cc2ncnc(Nc3ccc(O)c(Br)c3)c2cc1OC` [WHI-P154], the log2fc is reported as 0.511. Take `O=c1ccc2ccc(O)c(O)c2o1` [Daphnetin]: the log2fc was found to be 0.08794. Then `CO[C@H]1C[C@@H]2CC[C@@H](C)[C@@](O)(O2)C(=O)C(=O)N2CCCC[C@H]2C(=O)O[C@H]([C@H](C)C[C@@H]2CC[C@@H](OP(C)(C)=O)[C@H](OC)C2)CC(=O)[C@H](C)/C=C(\C)[C@@H](O)[C@@H](OC)C(=O)[C@H](C)C[C@H](C)/C=C/C=C/C=C/1C` [Ridaforolimus (Deforolimus, MK-8669)], with −1.384; and `Cc1c(CN2CCN(C(=O)[C@H](C)O)CC2)sc2c(N3CCOCC3)nc(-c3cnc(N)nc3)nc12` [Apitolisib (GDC-0980, RG7422)], with −0.658; and `Cn1ncc(Cl)c1-c1cc(C(=O)N[C@H](CN)Cc2ccc(F)c(F)c2)oc1Cl` [Uprosertib (GSK2141795)], with −1.387. Then `O=C1NC(=O)[C@@H](c2cn3c4c(cccc24)CCC3)[C@@H]1c1c[nH]c2ccccc12` [Tivantinib (ARQ 197)], with 0.2709; and `Cn1cnc2c(F)c(Nc3ccc(Br)cc3F)c(C(=O)NOCCO)cc21` [Binimetinib (MEK162, ARRY-162, ARRY-438)], with 0.5434; and `O=c1cc(-c2cccc3c2Sc2ccccc2S3)oc(N2CCOCC2)c1` [KU-55933 (ATM Kinase Inhibitor)], with 0.3053.

Molecule `Oc1cccc(-c2nc(N3CCOCC3)c3oc4ncccc4c3n2)c1` [PI-103] showed a log2fc of −1.021.

SNS-314 Mesylate returned a log2fc of 0.4469. Then `O=C1Nc2ccccc2/C1=C1/Nc2ccccc2C1=O` [Indirubin], with −1.247; and `Cc1cnc(-c2cnc(NCCNc3ccc(C#N)cn3)nc2-c2ccc(Cl)cc2Cl)[nH]1` [CHIR-99021 (CT99021)], with 1.316. For the molecule `O=C1NC(=O)/C(=C/c2ccc3c(c2)OC(F)(F)O3)S1` [AS-604850], the log2fc was 0.4876. Then `NC(=O)c1cccc(-c2cc(Nc3ccc(OC(F)(F)F)cc3)ncn2)c1` [GNF-2], with 0.1337. Then `COc1cc2nccc(Oc3ccc(NC(=O)C4(C(=O)Nc5ccc(F)cc5)CC4)cc3)c2cc1OC` [Cabozantinib (XL184, BMS-907351)], with 0.001197. Then `C=CC(=O)Nc1ccc2ncnc(Nc3cccc(Br)c3)c2c1` [PD168393], with 0.5991; and `COCC(=O)NC/C=C/c1ccc2ncnc(Nc3ccc(Oc4ccc(C)nc4)c(C)c3)c2c1` [CP-724714, reference compound], with 0.2836.

Molecule `COc1cccc(-c2cc(=O)c3ccccc3o2)c1N` [PD98059, reference compound] returned a log2fc of 0.3369.

`CC(C)NC[C@@H](C(=O)N1CCN(c2ncnc3c2[C@H](C)C[C@H]3O)CC1)c1ccc(Cl)cc1` [Ipatasertib (GDC-0068)] displayed a log2fc of −0.5082. In the case of `CC(O)C(=O)O.CC(O)C(=O)O.CN1CCN(c2ccc3nc(-c4c(N)c5c(F)cccc5[nH]c4=O)[nH]c3c2)CC1` [Dovitinib (TKI-258) Dilactic Acid] it was −0.3598; in that of `COc1cc2nccc(Oc3ccc(NC(=O)Nc4cc(C)on4)c(Cl)c3)c2cc1OC` [Tivozanib (AV-951)], 0.798.

For the molecule `COc1ccc2c(Oc3ccc(NC(=O)c4c(C)n(CC(C)(C)O)n(-c5ccccc5)c4=O)nc3)ccnc2c1` [AMG-458], the log2fc was determined as 0.0395. In turn, `O=C(c1cccc(Cl)c1F)N1CCN(Cc2cccc(Nc3nccs3)n2)CC1` [MK-8745] yielded a log2fc of −0.3779.

As to `CO[C@H]1C[C@@H]2CC[C@@H](C)[C@@](O)(O2)C(=O)C(=O)N2CCCC[C@H]2C(=O)O[C@H]([C@H](C)C[C@@H]2CC[C@@H](O)[C@H](OC)C2)CC(=O)[C@H](C)/C=C(\C)[C@@H](O)[C@@H](OC)C(=O)[C@H](C)C[C@H](C)/C=C/C=C/C=C/1C` [Rapamycin (Sirolimus)], the log2fc was −1.552.

On to `NC(=O)Nc1cc(-c2cccc(F)c2)sc1C(=O)N[C@H]1CCCNC1` [AZD7762], for which the log2fc amounted to 0.8568.

For the origin of these results see patent US12195490B2, “STRAD-binding agents and uses thereof” (The Regents of the University of California, priority 2020, dated 2025).
